Assay results published in the supplement of paper PMC10307832.

Columns and labels:
Assay in all cases: relative viability (nuclei count vs DMSO), 5 days (fraction); higher = more cells survive
Seliciclib + Phenformin = compound: CC[C@H](CO)Nc1nc(NCc2ccccc2)c2ncn(C(C)C)c2n1 [Seliciclib] + N=C(N)NC(=N)NCCc1ccccc1 [Phenformin] (partner 250 µM)
Procedure, shortened: (§1)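 Lung cancer cell lines in 1536-well plates got either a single drug or a fixed anchor-drug dose together with five library-drug doses (not always all listed) in √10 steps, by pin tool, on the day after seeding. Nuclei were counted after 5 days, and relative viability is the treated-to-vehicle ratio of nuclei counts. Values are medians of duplicate plates.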

Seliciclib + Trametinib = compound: CC[C@H](CO)Nc1nc(NCc2ccccc2)c2ncn(C(C)C)c2n1 [Seliciclib] + CC(=O)Nc1cccc(-n2c(=O)n(C3CC3)c(=O)c3c(Nc4ccc(I)cc4F)n(C)c(=O)c(C)c32)c1 [Trametinib] (partner 0.02 µM)
Procedure, shortened: as §1

Seliciclib + OSI-027 = compound: CC[C@H](CO)Nc1nc(NCc2ccccc2)c2ncn(C(C)C)c2n1 [Seliciclib] + COc1cccc2cc(-c3nc([C@H]4CC[C@H](C(=O)O)CC4)n4ncnc(N)c34)[nH]c12 [OSI-027] (partner 0.5 µM)
Procedure, shortened: as §1

Seliciclib = compound: CC[C@H](CO)Nc1nc(NCc2ccccc2)c2ncn(C(C)C)c2n1 [Seliciclib]
Procedure, shortened: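 Five library-drug doses spaced by √10 were pinned onto vehicle-anchored 1536-well plates of lung cancer cell lines that had been kept overnight at 37 °C. Cells went 5 days without medium change, then were fixed, permeabilised and Hoechst-stained together, imaged at 4× and counted by MetaXpress. Viability is the ratio of treated-well to vehicle-well nuclei, taken as a median over plates. Plates required control CV below 25% and at least one doubling.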

Cell Line	relative viability (Seliciclib + Phenformin; first compound 0.08 µM)	relative viability (Seliciclib + Phenformin; first compound 0.253 µM)	relative viability (Seliciclib + Phenformin; first compound 0.8 µM)	relative viability (Seliciclib + Phenformin; first compound 2.53 µM)	relative viability (Seliciclib + Phenformin; first compound 8 µM)	relative viability (Seliciclib + Trametinib; first compound 0.08 µM)	relative viability (Seliciclib + Trametinib; first compound 0.253 µM)	relative viability (Seliciclib + Trametinib; first compound 0.8 µM)	relative viability (Seliciclib + Trametinib; first compound 2.53 µM)	relative viability (Seliciclib + Trametinib; first compound 8 µM)	relative viability (Seliciclib + OSI-027; first compound 0.08 µM)	relative viability (Seliciclib + OSI-027; first compound 0.253 µM)	relative viability (Seliciclib + OSI-027; first compound 0.8 µM)	relative viability (Seliciclib + OSI-027; first compound 2.53 µM)	relative viability (Seliciclib + OSI-027; first compound 8 µM)	relative viability (Seliciclib; 0.08 µM)	relative viability (Seliciclib; 0.253 µM)	relative viability (Seliciclib; 0.8 µM)	relative viability (Seliciclib; 2.53 µM)	relative viability (Seliciclib; 8 µM)
201T	0.413	0.441	0.47	0.383	0.418	0.701	0.716	0.694	0.727	0.632	0.815	0.708	0.857	0.467	0.688	0.982	1.06	0.959	0.845	0.883
A549	0.154	–	0.183	0.171	0.127	–	–	–	–	–	–	–	–	–	–	0.914	0.985	0.931	0.906	0.81
A-427	0.325	0.354	0.307	0.276	0.295	0.767	0.816	0.797	0.678	0.586	0.419	0.615	0.442	0.331	0.401	1.03	1.02	1.02	0.883	0.967
ABC-1	0.251	0.257	0.234	0.281	0.222	–	–	–	–	–	0.611	0.378	0.431	0.32	0.387	0.995	1.12	1	0.615	0.582
BEN	0.268	0.249	0.125	0.284	0.227	0.976	0.809	1.1	0.991	1.04	0.295	0.287	0.343	0.309	0.276	1.04	0.82	1.03	0.907	0.817
CAL-12T	0.604	0.789	0.612	0.53	0.376	0.367	0.337	0.324	0.257	0.2	0.746	0.504	0.763	0.321	0.357	0.986	1.11	0.922	0.934	0.641
COR-L23	0.435	0.534	0.465	0.378	0.382	0.577	0.464	0.577	0.566	0.471	0.808	0.604	0.7	0.671	0.627	1.02	1.15	1.06	1.01	0.821
COR-L 105	0.466	0.565	0.549	0.389	0.481	0.469	0.36	0.427	0.451	0.401	0.722	0.622	0.754	0.56	0.646	0.932	1.14	0.924	0.851	0.902
Calu-6	–	–	–	–	–	–	–	–	–	–	–	–	–	–	–	0.991	1.13	1.01	1.01	0.891
ChaGo-K-1	0.485	0.389	0.508	0.422	0.384	0.838	0.87	0.894	0.873	0.745	0.663	0.367	0.587	0.356	0.451	1.05	0.995	0.923	0.935	0.912
EKVX	–	0.255	0.189	0.215	0.199	0.373	0.252	0.286	0.31	0.328	–	0.781	0.661	0.565	0.537	0.946	1.03	0.862	0.923	0.844
EMC-BAC-2	0.505	0.515	0.524	0.436	0.479	0.883	0.934	0.809	0.721	0.778	0.401	0.317	0.43	0.253	0.347	0.978	0.894	1.03	0.654	0.811
EPLC-272H	0.329	0.335	0.295	0.219	0.333	0.298	0.269	0.309	0.258	0.244	0.328	0.271	0.265	0.225	0.265	0.982	0.876	0.863	0.863	0.844
H3255	0.357	0.357	0.368	0.322	0.348	0.629	0.52	0.652	0.631	0.494	0.596	0.642	0.626	0.532	0.579	1.07	0.94	1.08	0.965	0.888
HARA	0.424	0.423	0.469	0.47	0.393	0.675	0.719	0.565	0.828	0.44	0.496	0.22	0.378	0.377	0.325	0.927	1.08	1.01	0.945	0.844
HCC-15	0.491	0.519	0.419	0.383	0.352	0.393	0.343	0.369	0.37	0.357	0.691	0.757	0.584	0.427	0.442	1.04	1.06	0.925	0.926	0.764
HCC-44	0.309	0.126	0.375	0.0882	0.174	1.09	1.17	0.999	0.933	1.06	0.488	0.451	0.508	0.302	0.508	1	1.05	1.01	0.931	0.899
